Results from patent US20250255867A1 (Kadmon Corporation, LLC, priority 2022, published 2025).

Settings: Cohort 1 200 mg QD

CC(C)NC(=O)COc1cccc(-c2nc(Nc3ccc4[nH]ncc4c3)c3ccccc3n2)c1 [Belumosudil, 2-{3-[4-(1H-indazol-5-ylamino)-2-quinazolinyl]phenoxy}-N-(propan-2-yl) acetamide]
Diarrhoea: Affected/At Risk: 6/17 | Diarrhoea: Affected/At Risk (%): (35.29%) | Dizziness: # Events: 0 | Dizziness: Affected/At Risk: 0/17 | Dizziness: Affected/At Risk (%): (0%) | Drug eruption: # Events: 0 | Drug eruption: Affected/At Risk: 0/17 | Drug eruption: Affected/At Risk (%): (0%) | Dry eye: # Events: 3 | Dry eye: Affected/At Risk: 2/17 | Dry eye: Affected/At Risk (%): (11.76%) | Dry skin: # Events: 1 | Dry skin: Affected/At Risk: 1/17 | Dry skin: Affected/At Risk (%): (5.88%) | Dyspepsia: # Events: 0 | Dyspepsia: Affected/At Risk: 0/17 | Dyspepsia: Affected/At Risk (%): (0%) | Dysphagia: # Events: 1 | Dysphagia: Affected/At Risk: 1/17 | Dysphagia: Affected/At Risk (%): (5.88%) | Dyspnoea exertional: # Events: 1 | Dyspnoea exertional: Affected/At Risk: 1/17 | Dyspnoea exertional: Affected/At Risk (%): (5.88%) | Dyspnoea: # Events: 2 | Dyspnoea: Affected/At Risk: 2/17 | Dyspnoea: Affected/At Risk (%): (11.76%) | Embolism: # Events: 1 | Embolism: Affected/At Risk: 1/17 | Embolism: Affected/At Risk (%): (5.88%) | Enamel anomaly: # Events: 0 | Enamel anomaly: Affected/At Risk: 0/17 | Enamel anomaly: Affected/At Risk (%): (0%) | Epidural lipomatosis: # Events: 1 | Epidural lipomatosis: Affected/At Risk: 1/17 | Epidural lipomatosis: Affected/At Risk (%): (5.88%) | Epstein-Barr virus infection: # Events: 1 | Epstein-Barr virus infection: Affected/At Risk: 1/17 | Epstein-Barr virus infection: Affected/At Risk (%): (5.88%) | Erectile dysfunction: # Events: 4 | Erectile dysfunction: Affected/At Risk: 2/17 | Erectile dysfunction: Affected/At Risk (%): (11.76%) | Eye irritation: # Events: 1 | Eye irritation: Affected/At Risk: 1/17 | Eye irritation: Affected/At Risk (%): (5.88%) | Eye pain: # Events: 0 | Eye pain: Affected/At Risk: 0/17 | Eye pain: Affected/At Risk (%): (0%) | Eye pruritus: # Events: 0 | Eye pruritus: Affected/At Risk: 0/17 | Eye pruritus: Affected/At Risk (%): (0%) | Fall: # Events: 2 | Fall: Affected/At Risk: 2/17 | Fall: Affected/At Risk (%): (11.76%) | Fatigue: # Events: 7 | Fatigue: Affected/At Risk: 6/17 | Fatigue: Affected/At Risk (%): (35.29%) | Flatulence: # Events: 0 | Flatulence: Affected/At Risk: 0/17 | Flatulence: Affected/At Risk (%): (0%) | Flushing: # Events: 0 | Flushing: Affected/At Risk: 0/17 | Flushing: Affected/At Risk (%): (0%) | Fungal infection: # Events: 1 | Fungal infection: Affected/At Risk: 1/17 | Fungal infection: Affected/At Risk (%): (5.88%) | Gamma-glutamyltransferase increased: # Events: 9 | Gamma-glutamyltransferase increased: Affected/At Risk: 4/17 | Gamma-glutamyltransferase increased: Affected/At Risk (%): (23.53%) | Gastric ulcer: # Events: 0 | Gastric ulcer: Affected/At Risk: 0/17 | Gastric ulcer: Affected/At Risk (%): (0%) | Gastrooesophageal reflux disease: # Events: 2 | Gastrooesophageal reflux disease: Affected/At Risk: 2/17 | Gastrooesophageal reflux disease: Affected/At Risk (%): (11.76%) | Generalised oedema: # Events: 1 | Generalised oedema: Affected/At Risk: 1/17 | Generalised oedema: Affected/At Risk (%): (5.88%) | Genital infection fungal: # Events: 0 | Genital infection fungal: Affected/At Risk: 0/17 | Genital infection fungal: Affected/At Risk (%): (0%) | Glaucoma: # Events: 0 | Glaucoma: Affected/At Risk: 0/17 | Glaucoma: Affected/At Risk (%): (0%) | Glucose urine present: # Events: 3 | Glucose urine present: Affected/At Risk: 2/17 | Glucose urine present: Affected/At Risk (%): (11.76%) | Graft versus host disease in gastrointestinal tract: # Events: 1 | Graft versus host disease in gastrointestinal tract: Affected/At Risk: 1/17 | Graft versus host disease in gastrointestinal tract: Affected/At Risk (%): (5.88%) | Gynaecomastia: # Events: 0 | Gynaecomastia: Affected/At Risk: 0/17 | Gynaecomastia: Affected/At Risk (%): (0%) | Haematuria: # Events: 1 | Haematuria: Affected/At Risk: 1/17 | Haematuria: Affected/At Risk (%): (5.88%) | Hair growth abnormal: # Events: 1 | Hair growth abnormal: Affected/At Risk: 1/17 | Hair growth abnormal: Affected/At Risk (%): (5.88%) | Headache: # Events: 4 | Headache: Affected/At Risk: 4/17 | Headache: Affected/At Risk (%): (23.53%) | Hodgkin's disease recurrent: # Events: 1 | Hodgkin's disease recurrent: Affected/At Risk: 1/17 | Hodgkin's disease recurrent: Affected/At Risk (%): (5.88%) | Hordeolum: # Events: 1 | Hordeolum: Affected/At Risk: 1/17 | Hordeolum: Affected/At Risk (%): (5.88%) | Hot flush: # Events: 1 | Hot flush: Affected/At Risk: 1/17 | Hot flush: Affected/At Risk (%): (5.88%) | Hyperglycemia: # Events: 2 | Hyperglycemia: Affected/At Risk: 2/17 | Hyperglycemia: Affected/At Risk (%): (11.76%) | Hyperhidrosis: # Events: 0 | Hyperhidrosis: Affected/At Risk: 0/17 | Hyperhidrosis: Affected/At Risk (%): (0%) | Hyperkalaemia: # Events: 7 | Hyperkalaemia: Affected/At Risk: 3/17 | Hyperkalaemia: Affected/At Risk (%): (17.65%) | Hypertension: # Events: 8 | Hypertension: Affected/At Risk: 5/17 | Hypertension: Affected/At Risk (%): (29.41%) | Hyperthyroidism: # Events: 0 | Hyperthyroidism: Affected/At Risk: 0/17 | Hyperthyroidism: Affected/At Risk (%): (0%) | Hypertriglyceridaemia: # Events: 0 | Hypertriglyceridaemia: Affected/At Risk: 0/17 | Hypertriglyceridaemia: Affected/At Risk (%): (0%) | Hyperuricaemia: # Events: 6 | Hyperuricaemia: Affected/At Risk: 1/17 | Hyperuricaemia: Affected/At Risk (%): (5.88%) | Hypoaesthesia: # Events: 2 | Hypoaesthesia: Affected/At Risk: 1/17 | Hypoaesthesia: Affected/At Risk (%): (5.88%) | Hypocalcaemia: # Events: 0 | Hypocalcaemia: Affected/At Risk: 0/17 | Hypocalcaemia: Affected/At Risk (%): (0%)
